Data reported in patent US4302472A, “Substituted N-(β-alkoxy-ethyl)-N-(4-phenoxy-benzyl)-dichloro-acetamides and process for their preparation” (Farmitalia Carlo Erba S.p.A., priority 1977, dated 1981).

How the values were obtained:
[1] = tested on: Entamoeba histolytica Meah; assay: In vitro antiamebic activity by serial dilutions in monophasic Pavlova medium; assay type: cell-based; settings: 48 hours, 37° C.; for minimal amoebicidal concentration, mean: mean of Dosage I-X
Protocol: The in vitro activity on Entamoeba histolytica Meah was determined on the products under test and on reference compounds, by the method of serial dilutions (ratio 1:1.5) in monophasic Pavlova medium with inoculation of 30,000 protozoa/ml and with incubation at 37° C. for 48 hours.
The level of activity of the compounds was determined by means of direct microscopical examination at 125 and 500 magnifications of the entire sediment of each culture. The results were expressed as minimal amoebicidal concentration in μg/ml.

[2] = tested on: Entamoeba histolytica Meah; assay: In vivo antiamebic activity in intestinal infection in the rat; design: species or system albino rats (strain:Wistar CFHB); key to Mean Score: mean score, 0 = no amoebae/ulceration to 5 = >half cecum ulcerated; settings: for Mean Score: by gavage, 20 animals, score 0 (no amoebae, no ulceration) to 5, vehicle control 3.5; for ED50: Entamoeba histolytica, po, calculated on the number of animals with score = 0, rat, by gavage twice a day for 21/2 days
Protocol: The in vivo antiamebic activity in the intestinal infection was determined with a method similar to the method described by Jones (Ann.trop.Med.Paras., 40, 130-140, 1946), as reported hereunder. Young, specific pathogen free albino rats (strain:Wistar CFHB) weighing 30-35 g and fed on a low-protein diet, were infected by intracecal injection with a suspension of trophozoites of Entamoaba histolytica Meah (250,000/rat) containing 3% of Wilson […] mucin. The substances under test and the reference products were administered in serial doses, by gavage twice a day for 21/2 days. The therapeutic effect was determined on the fifth day after infection on the basis of the presence or absence of amebic ulcers in the cecal mucosa and of viable amoebae in the cecal mucosa and in the fecal content of the cecum.
Each animal was assigned a score, according to the following scale:
score 0=no amoebae, no ulceration;
score 1=from 1 to 20 amoebae per faecal smear; no amoeba in the scrape of caecal mucosa; no ulceration;
score 2=from 20 to a very large number of amoebae per smear of feces; no ameoba in the mucosal scrape; no ulceration;
score 3=amoebae originating from microscopic lesions of the cecal mucosa;
score 4=microscopic lesions of the cecal mucosa;
score 5=more than half the cecum ulcerated by amoebic lesions.
The antiamebic activity was expressed both as ED50 calculated according to the number of animals totally free of amoebae (score=0) and as mean score for each dose level.

[3] = Approximate acute toxicity (LD50) in the mouse, single administration per os; settings: in vivo, po, measured on the seventh day
Protocol: The toxicity of the compounds of the invention is quite negligible. For example, for the compounds A and B mentioned in the foregoing Tables the approximate acute toxicity (LD50) in the mouse, determined with single administration of increasing doses and measured on the seventh day of treatment, was, per os, much higher than 800 mg/kg. Similar LD50 are found also for the other compounds of the invention, in particular for the compounds: […]

[4] = Absorption; settings: in vivo
[5] = tested on: amoebae within the intestinal wall; assay: Activity on amoebae within the intestinal wall; settings: in vivo

Structure (SMILES)	minimal amoebicidal concentration ([1]; Dosage I) [µg/mL]	minimal amoebicidal concentration ([1]; Dosage II) [µg/mL]	minimal amoebicidal concentration ([1]; Dosage III) [µg/mL]	minimal amoebicidal concentration ([1]; Dosage IV) [µg/mL]	minimal amoebicidal concentration ([1]; Dosage IX) [µg/mL]	minimal amoebicidal concentration ([1]; Dosage V) [µg/mL]	minimal amoebicidal concentration ([1]; Dosage VI) [µg/mL]	minimal amoebicidal concentration ([1]; Dosage VII) [µg/mL]	minimal amoebicidal concentration ([1]; Dosage VIII) [µg/mL]	minimal amoebicidal concentration ([1]; Dosage X) [µg/mL]	minimal amoebicidal concentration, mean [1] [µg/mL]	Mean Score ([2]; 6.2 mg/kg × 5 times)	Mean Score ([2]; 12.5 mg/kg × 5 times)	Mean Score ([2]; 25 mg/kg × 5 times)	Mean Score ([2]; 50 mg/kg × 5 times)	ED50 [2] [mg/kg]	LD50 at 168 h [3] [mg/kg]	absorption [4]	activity on amoebae within the intestinal wall [5]
CCOCCN(Cc1ccc(Oc2ccc(N)cc2)cc1)C(=O)C(Cl)Cl [Compound A, N-(β-ethoxy-ethyl)-N-[4-phenoxy-(4'-amino)-benzyl]-dichloroacetamide]	0.017	0.017	0.017	0.026	0.026	0.011	0.011	0.026	0.017	0.026	0.019	1.6	1.1	1.0	0.5	19	> 800	–	–
CCOCCN(Cc1ccc(Oc2ccc([N+](=O)[O-])cc2)cc1)C(=O)C(Cl)Cl [Etofamide]	0.026	0.026	0.058	0.058	0.058	0.026	0.017	0.039	0.017	0.039	0.036	3.3	1.6	1.3	1.0	29	–	–	–
CCOCCN(Cc1ccc(CN(CCOCC)C(=O)C(Cl)Cl)cc1)C(=O)C(Cl)Cl [Teclozan]	0.058	0.058	0.087	0.058	0.087	0.087	0.058	0.087	0.087	0.058	0.072	–	–	–	–	–	–	–	–
CN(C(=O)C(Cl)Cl)c1ccc(OC(=O)c2ccco2)cc1 [Diloxanide furoate]	0.44	0.44	0.44	0.29	0.19	0.29	0.19	0.29	0.19	0.19	0.30	–	–	–	–	–	–	–	–
CCOCCN(Cc1ccc(Oc2ccc(NC(C)=O)cc2)cc1)C(=O)C(Cl)Cl [Compound B, N-(β-ethoxy-ethyl)-N-[4-phenoxy-(4'-acetamido)-benzyl]-dichloroacetamide]	0.004	0.005	0.007	0.013	0.017	0.017	0.008	0.003	0.026	0.017	0.011	–	–	–	–	–	> 800	–	–
CCOCCN(Cc1ccc(Oc2ccc(NC(=O)CN)cc2)cc1)C(=O)C(Cl)Cl [N-(β-ethoxy-ethyl)-N-[4-phenoxy-(4'-glycinylamino)-benzyl]-dichloroacetamide]	–	–	–	–	–	–	–	–	–	–	–	–	–	–	–	–	–	absorbed to a greater extent	active on amoebae within the intestinal wall itself
